Data on 19 compounds can be found in ChEMBL document CHEMBL5257135, “Synthesis of Artesunic Acid-Coumarin Hybrids as Potential Antimelanoma Agents” (ACS Med Chem Lett, 2023).

Series [1] relates to SK-MEL3. Description: Anticancer activity against human SK-MEL3 cells assessed as reduction in cell viability incubated for 24 hrs by MTT assay. The format is functional, cell-based. To be noted: SK-MEL3, 24 h. (Tetrazolium dyes change colour on reduction, which living cells bring about.)
The nature of series [2]: Cytotoxicity against human C3PV cells assessed as reduction in cell viability incubated for 24 hrs by MTT assay. Type of series: toxicity, cell-based. Particulars: for IC50 at 24 h: human, C3PV cells; for IC50: c3pv.
In series [3] the test system is SK-MEL-28. Description: Anticancer activity against human SK-MEL-28 cells assessed as reduction in cell viability incubated for 24 hrs by MTT assay. Type of series: functional, cell-based. Particulars: SK-MEL-28, 24 h.
The nature of series [4]: Selectivity index, ratio of IC50 for cytotoxicity against human C3PV cells to IC50 for anticancer activity against human SK-MEL3 cells. The format is toxicity, cell-based. Particulars: C3PV cells and SK-MEL3 cells, read-out: Ratio IC50.
A short description of series [5]: Cytotoxicity against human C3PV cells assessed as reduction in cell proliferation at 0.015 uM to incubated for 24 hrs by trypan blue exclusion assay. The format is toxicity, cell-based.
Series [6] concerns SK-MEL3. The series is described as follows: Induction of apoptosis in human SK-MEL3 cells assessed as dead cells at 0.015 uM by fluorescein diacetate, propidium iodide, and Hoechst staining based confocal microscopy. Type of series: functional, cell-based.
Series [7] relates to SK-MEL-28. Description: Antiproliferative activity against human SK-MEL-28 cells assessed as reduction in cell proliferation at 0.015 uM to incubated for 24 hrs by trypan blue exclusion assay. The format is functional, cell-based.
For series [8], the system named is SK-MEL3. The series is described as follows: Anticancer activity against human SK-MEL3 cells assessed as reduction in cell viability incubated for 24 hrs in presence of deferoxamine by MTT assay. Type of series: functional, cell-based. To be noted: SK-MEL3, 24 h.
Series [9] deals with SK-MEL-28. Description: Induction of apoptosis in human SK-MEL-28 cells assessed as dead cells at 0.015 uM by fluorescein diacetate, propidium iodide, and Hoechst staining based confocal microscopy. The format is functional, cell-based.
Series [10] concerns C3PV. The series is described as follows: Induction of apoptosis in human C3PV cells assessed as dead cells at 0.015 uM by fluorescein diacetate, propidium iodide, and Hoechst staining based confocal microscopy. The format is functional, cell-based.
The test system of series [11] is SK-MEL3. Description: Antiproliferative activity against human SK-MEL3 cells assessed as reduction in cell proliferation at 0.015 uM to incubated for 24 hrs by trypan blue exclusion assay. Type of series: functional, cell-based.
The test system of series [12] is SK-MEL-28. Description: Induction of apoptosis in human SK-MEL-28 cells assessed as dead cells at 0.05 uM by fluorescein diacetate, propidium iodide, and Hoechst staining based confocal microscopy. Type of series: functional, cell-based.
Series [13] has as its system SK-MEL3. Description: Induction of apoptosis in human SK-MEL3 cells assessed as dead cells at 0.05 uM by fluorescein diacetate, propidium iodide, and Hoechst staining based confocal microscopy. The format is functional, cell-based.
The subject of series [14] is SK-MEL-28. The series is described as follows: Antiproliferative activity against human SK-MEL-28 cells assessed as reduction in cell proliferation at 0.05 uM to incubated for 24 hrs by trypan blue exclusion assay. The format is functional, cell-based.
Series [15] in a line: Cytotoxicity against human C3PV cells assessed as reduction in cell proliferation at 0.05 uM to incubated for 24 hrs by trypan blue exclusion assay. The format is toxicity, cell-based.
Series [16] deals with C3PV. The series is described as follows: Induction of apoptosis in human C3PV cells assessed as dead cells at 0.05 uM by fluorescein diacetate, propidium iodide, and Hoechst staining based confocal microscopy. The format is functional, cell-based.
Series [17] deals with SK-MEL3. Description: Antiproliferative activity against human SK-MEL3 cells assessed as reduction in cell proliferation at 0.05 uM to incubated for 24 hrs by trypan blue exclusion assay. The format is functional, cell-based.
The test system of series [18] is SK-MEL3. Description: Anticancer activity against human SK-MEL3 cells assessed as reduction in cell viability incubated for 24 hrs in presence of Artesunic acid by MTT assay. The format is functional, cell-based. Particulars: SK-MEL3, 24 h.
Series [19] in a line: Drug localization in human SK-MEL3 cell nucleus incubated for 24 hrs by propidium iodide staining based Confocal microscopy. Particulars: sk-mel3, 24 h. The format is ADME, subcellular.

Calls of active or inactive are those of the source. The calls are words filed in the database; no cut-off is given here.

As to `O=c1cc(C(F)(F)F)c2ccc(O)cc2o1`, the 50% inhibitory concentration (IC50) – broadly, the concentration that gives 50% inhibition – stood at 0.58 µM in the series on SK-MEL3 [1] and 1.1 µM in the series on SK-MEL-28 [3]. Further, in series [2], the IC50 at 24 h was 2.5 µM. Moreover, the selectivity ratio in series [4] worked out at 4.3.
On the same counts, the results for `O=c1cc(O)c2ccccc2o1` [4-HYDROXYCOUMARINS] are 2.1 µM, 1.3 µM, 0.6 µM and 0.29.
On to `COc1cc2ccc(=O)oc2cc1OC(=O)CCC(=O)O[C@@H]1O[C@@H]2C[C@]3(C)CC[C@H]4[C@H](C)CC[C@@H]([C@H]1C)[C@@]24OO3`, for which the IC50 with SK-MEL3 [1] is 4.1 µM; in the series with SK-MEL-28 [3] it was 132 µM. In addition, the IC50 at 24 h in [2] was 3.05 µM. For the same compound, the selectivity ratio in [4] is 0.74.
On the same counts, the results for `O=c1oc2ccccc2cc1O` [3-HYDROXYCOUMARIN] are 6.8 µM, 1.2 µM, 12.5 µM and 1.8.
On the same counts, the results for `CC(=O)O[C@H]1C(=O)[C@@]2(C)[C@H]([C@H](OC(=O)c3ccccc3)[C@]3(O)C[C@H](OC(=O)[C@H](O)[C@@H](NC(=O)c4ccccc4)c4ccccc4)C(C)=C1C3(C)C)[C@]1(OC(C)=O)CO[C@@H]1C[C@@H]2O` [PACLITAXEL] are 4.73 µM, 1.07 µM, 78.9 µM and 16.7.
On the same counts, the results for `Cc1cc(=O)oc2cc(OC(=O)CCC(=O)O[C@@H]3O[C@@H]4C[C@]5(C)CC[C@H]6[C@H](C)CC[C@@H]([C@H]3C)[C@@]46OO5)ccc12` are 2.6 µM, 13.5 µM, 0.66 µM and 0.25.
With `C[C@H]1[C@H](OC(=O)CCC(=O)Oc2ccc3oc(=O)ccc3c2)O[C@@H]2C[C@]3(C)CC[C@H]4[C@H](C)CC[C@@H]1[C@@]24OO3`, the Activity entry in series [5] is reported as “Non-Toxic”. In addition, the outcome in the series with SK-MEL3 [6] and with SK-MEL3 [11] was Active. The outcome in the series with SK-MEL-28 [7], with SK-MEL-28 [9] and with C3PV [10] was inactive. Further, the IC50 with SK-MEL3 [1] was determined as 0.015 µM; in the series with SK-MEL3 [8], 0.001 µM; in the series on SK-MEL-28 [3] it was 576 µM. Moreover, in series [2], the half-inhibitory concentration (IC50) at 24 h was 132 µM. The selectivity ratio in series [4] came out at 8810.
As for `C[C@H]1[C@H](OC(=O)CCC(=O)Oc2ccc3ccc(=O)oc3c2)O[C@@H]2C[C@]3(C)CC[C@H]4[C@H](C)CC[C@@H]1[C@@]24OO3`, the outcome in the series with SK-MEL-28 [12], with SK-MEL3 [13] and in the series on SK-MEL3 [17] was Active. The IC50 in the series with SK-MEL3 [1] came to 0.05 µM; in the series on SK-MEL3 [8], 0.118 µM; in the series with SK-MEL-28 [3], 2.2 µM. The half-maximal inhibitory concentration (IC50) at 24 h in [2] came to 216 µM. Besides, the outcome with SK-MEL-28 [14] and in the series with C3PV [16] was inactive. For the same compound, the Activity result in [15] is listed as “Non-Toxic”. In addition, the selectivity ratio in [4] was 4320.
With `C[C@H]1[C@H](OC(=O)CCC(=O)Oc2cc3ccc(=O)oc3cc2O)O[C@@H]2C[C@]3(C)CC[C@H]4[C@H](C)CC[C@@H]1[C@@]24OO3`, the IC50 worked out at 1.9 µM in the series on SK-MEL3 [1], 686 µM in [2] and 97.9 µM in the series with SK-MEL-28 [3]. For the same compound, in series [4], the selectivity ratio is 361.
Take `COc1cc2ccc(=O)oc2cc1O` [SCOPOLETIN]: the IC50 in the series on SK-MEL3 [1] stood at 1.5 µM; with SK-MEL-28 [3], 3.43 µM. Besides, in series [2], the IC50 at 24 h amounted to 1.6 µM. The selectivity ratio in series [4] came out at 1.1.
For `O=c1ccc2cc(O)ccc2o1` [6-HYDROXYCOUMARIN], the 50% inhibitory concentration (IC50) was found to be 1.14 µM in the series with SK-MEL3 [18], 1.85 µM in the series on SK-MEL3 [1] and 0.45 µM in the series on SK-MEL-28 [3]. The half-inhibitory concentration (IC50) at 24 h in [2] is 2.95 µM. Moreover, the selectivity ratio in [4] worked out at 1.6.
Consider `C[C@H]1[C@H](OC(=O)CCC(=O)Nc2ccc3c(C(F)(F)F)cc(=O)oc3c2)O[C@@H]2C[C@]3(C)CC[C@H]4[C@H](C)CC[C@@H]1[C@@]24OO3`, for which the IC50 with SK-MEL3 [1] stood at 1.3 µM; in the series with SK-MEL-28 [3], 1090 µM. Further, in [2], the IC50 at 24 h came to 0.21 µM. The Drug uptake entry in [19] is on record as “Active”. Further, in series [4], the selectivity ratio was 0.16.
For `C[C@H]1[C@H](OC(=O)CCC(=O)Oc2cc(=O)oc3ccccc23)O[C@@H]2C[C@]3(C)CC[C@H]4[C@H](C)CC[C@@H]1[C@@]24OO3`, the IC50 is 2.7 µM with SK-MEL3 [1] and 72.8 µM in the series on SK-MEL-28 [3]. In series [2], the 50% inhibitory concentration (IC50) at 24 h was 321 µM. For the same compound, the selectivity ratio in series [4] worked out at 119.
With `Cc1cc(=O)oc2cc(O)ccc12` [HYMECROMONE], the IC50 in the series on SK-MEL3 [1] stood at 1.6 µM; in the series on SK-MEL-28 [3], 0.58 µM. In addition, the IC50 at 24 h in [2] was found to be 7 µM. Besides, the selectivity ratio in series [4] was 4.37.
As to `Nc1ccc2c(C(F)(F)F)cc(=O)oc2c1`, the 50% inhibitory concentration (IC50) turned out to be 0.93 µM with SK-MEL3 [1] and 0.98 µM in the series on SK-MEL-28 [3]. Besides, in series [2], the 50% inhibitory concentration (IC50) at 24 h came out at 27.4 µM. Also, the Drug uptake entry in [19] is reported as “Active”. In series [4], the selectivity ratio came out at 29.4.
Consider `O=c1ccc2cc(O)c(O)cc2o1` [ESCULETIN], for which the IC50 in the series with SK-MEL3 [1] was 1.7 µM; in the series on SK-MEL-28 [3], 0.96 µM. Besides, the IC50 at 24 h in series [2] was determined as 25.8 µM. The selectivity ratio in series [4] was 15.2.
Turning to `C[C@H]1[C@H](OC(=O)CCC(=O)Oc2cc3ccccc3oc2=O)O[C@@H]2C[C@]3(C)CC[C@H]4[C@H](C)CC[C@@H]1[C@@]24OO3`, the IC50 came to 1 µM with SK-MEL3 [1] and 38 µM in the series on SK-MEL-28 [3]. Besides, the concentration for half-maximal inhibition (IC50) at 24 h in [2] came to 5.64 µM. For the same compound, the selectivity ratio in series [4] turned out to be 5.64.
For the compound `O=c1ccc2ccc(O)cc2o1` [UMBELLIFERONE], the IC50 with SK-MEL3 [18] is 1.6 µM; in the series on SK-MEL3 [1], 2.1 µM; in the series on SK-MEL-28 [3], 0.48 µM. For the same compound, the IC50 at 24 h in [2] amounted to 20.9 µM. In addition, the selectivity ratio in [4] stood at 9.9.
As for `C[C@H]1[C@H](OC(=O)CCC(=O)Oc2ccc3c(C(F)(F)F)cc(=O)oc3c2)O[C@@H]2C[C@]3(C)CC[C@H]4[C@H](C)CC[C@@H]1[C@@]24OO3`, the IC50 in the series on SK-MEL3 [1] is 3.6 µM; in series [2] it was 1060 µM; in the series with SK-MEL-28 [3], 6.84 µM. The selectivity ratio in series [4] turned out to be 294.
